Reference: patent US10551389B2, “Target binding molecules identified by kinetic target-guided synthesis” (UNIVERSITY OF SOUTH FLORIDA, priority 2013, dated 2020)

Assays:
Mcl-1 = Mcl-1 (Homo sapiens, UniProt Q07820); test: Inhibition of Mcl-1 (disruption of Mcl-1/Bim interaction); type: binding; settings: for % Inhibition (25 μM) Mcl-1 / inhibition at 25 µM: compound at 25 μM; for % Inhibition (50 μM) Mcl-1 / inhibition at 50 µM: compound at 50 μM
Protocol: (§1) In a subsequent study, a structurally diverse library of forty five thio acids and thirty eight sulfonyl azides (identified above) was screened in parallel against Mcl-1 and Bcl-XL using the above mentioned approach. Several potential hit combinations were identified (Table 3). All of these kinetic TGS hit compounds were synthesized (identified above and in Table 3). All the reactions were performed at 20-30 mg scale. The 9-fluorenylmethyl thioester was placed in a 2.0 mL vial and 3.5% DBU/dry DMF solution was added (per 1 μmol of thioester, 4.7 μL, of 3.5% DBU/dry DMF solution was added) and the reaction was stirred for one minute. Then the sulfonylazide (1 eq to thioester) was added to the reaction mixture and immediately bubbling was observed. After the reaction was completed (approximately one minute, monitored by LC-MS) water (200 μL) was added and the pH was adjusted to 7.0 using 1M HCl solution. The reaction mixture was extracted with DCM until there is no product in the aqueous layer (checked by TLC or LC-MS). The product was purified by flash chromatography. Testing of these acylsulfonamides has shown that the hit compounds disrupt the Bcl-XL/Bim or Mcl-1/Bim interaction (Table 3).

Bcl-XL = Bcl-XL (Homo sapiens, UniProt Q07817); test: Inhibition of Bcl-XL (disruption of Bcl-XL/Bim interaction); type: binding; settings: for % Inhibition (25 μM) Bcl-XL / inhibition at 25 µM: compound at 25 μM; for % Inhibition (50 μM) Bcl-XL / inhibition at 50 µM: compound at 50 μM
Protocol: as §1

Sequence of Bcl-XL (Q07817 whole entry, species assumed): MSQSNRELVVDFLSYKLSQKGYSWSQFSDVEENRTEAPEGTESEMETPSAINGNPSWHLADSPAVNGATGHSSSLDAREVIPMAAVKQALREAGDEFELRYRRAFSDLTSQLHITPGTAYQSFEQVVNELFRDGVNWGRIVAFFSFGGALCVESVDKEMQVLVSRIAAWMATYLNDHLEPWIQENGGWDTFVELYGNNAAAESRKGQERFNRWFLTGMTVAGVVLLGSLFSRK
Sequence of Mcl-1 (Q07820 whole entry, species assumed): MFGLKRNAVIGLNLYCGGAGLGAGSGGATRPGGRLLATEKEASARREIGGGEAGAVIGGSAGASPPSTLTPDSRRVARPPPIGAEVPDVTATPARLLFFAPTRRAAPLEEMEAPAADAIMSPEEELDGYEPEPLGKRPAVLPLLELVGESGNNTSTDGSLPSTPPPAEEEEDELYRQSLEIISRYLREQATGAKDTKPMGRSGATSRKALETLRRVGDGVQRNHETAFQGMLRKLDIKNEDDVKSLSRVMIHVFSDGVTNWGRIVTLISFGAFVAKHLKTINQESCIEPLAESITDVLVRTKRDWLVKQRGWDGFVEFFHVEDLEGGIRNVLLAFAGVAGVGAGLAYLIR

Row | IC50 (Mcl-1) | % Inhibition (25 μM) Mcl-1 (Mcl-1) | % Inhibition (50 μM) Mcl-1 (Mcl-1) | IC50 (Bcl-XL) | % Inhibition (25 μM) Bcl-XL (Bcl-XL) | % Inhibition (50 μM) Bcl-XL (Bcl-XL) | inhibition at 25 µM (Mcl-1) | inhibition at 25 µM (Bcl-XL) | inhibition at 50 µM (Bcl-XL) | inhibition at 50 µM (Mcl-1) | SMILES
1 | 60.6 µM | 30.8% | 44.7% | 2.08 µM | 83.7% | 90.6% | – | – | – | – | O=C(NS(=O)(=O)c1ccc(NCCSc2ccccc2)c([N+](=O)[O-])c1)c1ccc(CCc2ccccn2)cc1 [SZATA17]
2 | – | 62.7% | 34.5% | – | 6.8% | <2.0% | – | – | – | – | COc1cccc(CN(CCSc2ccccc2)Cc2ccc(S(=O)(=O)NC(=O)c3ccc4c(c3)c(C(=O)c3cccs3)cn4C)cc2)c1 [SZ17TA45]
3 | – | 68.5% | 93.1% | – | 27.8% | 47.9% | – | – | – | – | Cn1cc(C(=O)C2CCCCC2)c2cc(C(=O)NS(=O)(=O)c3ccc(COc4ccc5c(=O)cc(-c6ccccc6)oc5c4)cc3)ccc21 [SZ14TA40]
4 | – | 54.4% | 70.8% | – | 14.7% | 18.9% | – | – | – | – | COc1ccc(Cc2ccc(C(=O)NS(=O)(=O)c3ccc(CN(CCSc4ccccc4)Cc4c(F)cccc4Cl)cc3)cc2)c(OC)c1OC [SZ15TA24]
5 | 13.6 µM | – | – | – | – | – | 77.3% | 14% | 22.6% | – | O=C(NS(=O)(=O)c1ccc(CNc2cccc([N+](=O)[O-])c2)cc1)c1ccc(CN2C(=O)C(c3ccc(F)cc3F)=C(c3ccc(F)cc3F)C2=O)cc1 [SZ12TA42]
6 | 20.2 µM | – | – | – | – | – | 79.6% | 43.4% | 60% | – | O=C(NS(=O)(=O)c1ccc(CN(CCSc2ccccc2)Cc2c(F)cccc2Cl)cc1)c1ccc(CCc2ccccn2)cc1 [SZ15TA17]
7 | – | 18.3% | 52.3% | – | 14.1% | 5.2% | – | – | – | – | COc1cc2c(cc1OC)C(c1ccccc1)N(CCS(=O)(=O)NC(=O)c1ccc(CN3C(=O)C(c4ccc(F)cc4F)=C(c4ccc(F)cc4F)C3=O)cc1)CC2 (stereo not drawn) [SZ27TA42]
8 | – | <2.0% | <2.0% | – | <2.0% | <2.0% | – | – | – | – | O=C(NS(=O)(=O)c1ccc(CN(CCSc2ccccc2)Cc2ccc3c(c2)OCO3)cc1)c1ccc(C(c2c[nH]c3ccccc23)c2c[nH]c3ccccc23)cc1 [SZ31TA31]
9 | 19.1 µM | – | – | – | – | – | 72.2% | 26% | 59.4% | – | Cc1noc(C)c1-c1ccc(S(=O)(=O)NC(=O)c2ccc(CN3C(=O)C(c4ccc(F)cc4F)=C(c4ccc(F)cc4F)C3=O)cc2)cc1 [SZ32TA42]
10 | – | <2.0% | 22.7% | – | 21.8% | <2.0% | – | – | – | – | O=C(NS(=O)(=O)c1ccc(-c2cc3ccccc3s2)cc1)c1ccc(CN2C(=O)C(c3ccc(F)cc3F)=C(c3ccc(F)cc3F)C2=O)cc1 [SZ37TA42]
11 | 20 µM | – | – | – | – | – | 59.9% | 8.2% | 15.5% | – | COc1ccc(Cc2ccc(C(=O)NS(=O)(=O)c3ccc(CN(CCSc4ccccc4)Cc4ccc5c(c4)OCO5)cc3)cc2)c(OC)c1OC [SZ31TA24]
12 | – | 9.0% | 24.4% | – | 9.6% | <2.0% | – | – | – | – | O=C(NS(=O)(=O)c1ccc(CN2CCN(c3ccccc3)CC2)cc1)c1ccc(-c2ccc(F)cc2)cc1 [SZ1TA14]
13 | – | 18.0% | 15.8% | – | <2.0% | <2.0% | – | – | – | – | COc1cccc(CN(CCSc2ccccc2)Cc2ccc(S(=O)(=O)NC(=O)c3ccc4c(ccn4Cc4ccc(C(F)(F)F)cc4C(F)(F)F)c3)cc2)c1 [SZ17TA30]
14 | 8.4 µM | – | – | – | – | – | 60.5% | 4.1% | < 2% | 100% | COc1cccc(CN(CCSc2ccccc2)Cc2ccc(S(=O)(=O)NC(=O)c3ccc(OC(F)(F)F)cc3)cc2)c1 [SZ17TA8]
15 | 14 µM | – | – | – | – | – | 82% | 18.5% | 21.4% | – | O=C(Cn1c2ccccc2c2ccccc21)NS(=O)(=O)c1ccc(CN(CCSc2ccccc2)Cc2ccc3c(c2)OCO3)cc1 [SZ31TA15]
16 | 7.6 µM | <2.0% | 96.5% | 47 µM | 3.4% | 12.4% | – | – | – | – | O=C(NS(=O)(=O)c1ccc(CN(CCSc2ccccc2)Cc2c(F)cccc2Cl)cc1)c1ccc(OC(F)(F)F)cc1 [SZ15TA8]

Row | IC50 (Mcl-1) | % Inhibition (25 μM) Mcl-1 (Mcl-1) | % Inhibition (50 μM) Mcl-1 (Mcl-1) | IC50 (Bcl-XL) | % Inhibition (25 μM) Bcl-XL (Bcl-XL) | % Inhibition (50 μM) Bcl-XL (Bcl-XL) | inhibition at 25 µM (Mcl-1) | inhibition at 25 µM (Bcl-XL) | inhibition at 50 µM (Bcl-XL) | inhibition at 50 µM (Mcl-1) | SMILES
17 | – | 47.4% | 82.8% | – | 19.6% | 28.6% | – | – | – | – | O=C(CC1Sc2ccccc2NC1=O)NS(=O)(=O)c1ccc(CN(CCSc2ccccc2)Cc2c(F)cccc2Cl)cc1 (stereo not drawn) [SZ15TA34]
18 | – | 64.9% | 93.6% | – | 38.6% | 54.5% | – | – | – | – | COc1cccc(CN(CCSc2ccccc2)Cc2ccc(S(=O)(=O)NC(=O)c3ccc(-c4ccccn4)cc3)cc2)c1 [SZ17TA25]
19 | 31.5 µM | – | – | – | – | – | 49.9% | 26.8% | 55.5% | – | O=C(NS(=O)(=O)c1ccc(-c2ccc(C(F)(F)F)cc2)cc1)c1cccc(NCCc2ccccc2)c1 [SZ16TA44]
20 | – | 19.4% | 64.1% | – | 17.4% | 27.0% | – | – | – | – | NS(=O)(=O)c1ccc(CN(CCSc2ccccc2)Cc2ccc(S(=O)(=O)NC(=O)CC3Sc4ccccc4NC3=O)cc2)cc1 (stereo not drawn) [SZ10TA34]
21 | – | – | – | – | – | – | 43.1% | 18.6% | < 2% | – | [N-]=[N+]=NS(=O)(=O)c1ccc(CN(CCSc2ccccc2)Cc2ccc(S(=O)(=O)NC(=O)c3ccc(-c4ccccn4)cc3)cc2)cc1 [SZ9TA25]
22 | 8.6 µM | – | – | – | – | – | – | – | 39.6% | 100% | COc1cccc(CN(CCSc2ccccc2)Cc2ccc(S(=O)(=O)NC(=O)c3sc(-c4ccccc4)nc3C)cc2)c1 [SZ17TA3]
23 | – | 65.8% | 58.8% | – | 31.1% | 23.2% | – | – | – | – | O=C(NS(=O)(=O)c1ccc(CN(CCSc2ccccc2)Cc2c(F)cccc2Cl)cc1)c1ccc(-c2ccc(F)cc2)cc1 [SZ15TA14]
24 | – | 25.8% | 58.5% | – | 7.5% | <2.0% | – | – | – | – | COc1cccc(CN(CCSc2ccccc2)Cc2ccc(S(=O)(=O)NC(=O)c3ccc4c(c3)c(C(=O)C3CCCCC3)cn4C)cc2)c1 [SZ17TA40]
25 | 5.9 µM | – | – | – | – | – | 61.2% | 9.5% | – | > 99% | O=C(NS(=O)(=O)c1ccc(CN(CCSc2ccccc2)Cc2ccc3c(c2)OCO3)cc1)c1ccc(OC(F)(F)F)cc1 [SZ31TA8]
26 | 9.7 µM | – | – | – | – | – | – | – | 53.4% | – | O=C(NS(=O)(=O)c1ccc(CN(CCSc2ccccc2)Cc2c(F)cccc2Cl)cc1)c1ccccc1 [SZ15TA1]
27 | – | 11.8% | 2.6% | – | <2.0% | <2.0% | – | – | – | – | O=C(NS(=O)(=O)c1ccc(CN2CCN(c3ccccc3)CC2)cc1)c1ccc2c(ccn2Cc2ccc(C(F)(F)F)cc2C(F)(F)F)c1 [SZ1TA30]
28 | 16.9 µM | – | – | 28.6 µM | – | – | 49.6% | 15.5% | 73% | 93.9% | CC1(C)CCN(c2ccc(C(=O)NS(=O)(=O)c3ccc4ccc(S(=O)(=O)NCCSc5ccccc5)cc4c3)cc2)CC1 [SZ7TA2]
29 | – | 14.9% | 36.5% | – | <2.0% | <2.0% | – | – | – | – | O=C(NS(=O)(=O)c1ccc(CN(CCSc2ccccc2)Cc2ccc3c(c2)OCO3)cc1)c1cccc(NCCc2ccccc2)c1 [SZ31TA44]
30 | – | 42.2% | 53.6% | – | 10.1% | 8.8% | – | – | – | – | O=C(Cn1c2ccccc2c2ccccc21)NS(=O)(=O)c1ccc(CN(CCSc2ccccc2)Cc2c(F)cccc2Cl)cc1 [SZ15TA15]
31 | – | 37.2% | 35.2% | – | <2.0% | <2.0% | – | – | – | – | Cn1cc(C(=O)C2CCCCC2)c2cc(C(=O)NS(=O)(=O)c3ccc(CN(CCSc4ccccc4)Cc4ccc(S(N)(=O)=O)cc4)cc3)ccc21 [SZ10TA40]

Row | SMILES | IC50 (Mcl-1) | % Inhibition (25 μM) Mcl-1 (Mcl-1) | % Inhibition (50 μM) Mcl-1 (Mcl-1) | IC50 (Bcl-XL) | % Inhibition (25 μM) Bcl-XL (Bcl-XL) | % Inhibition (50 μM) Bcl-XL (Bcl-XL) | inhibition at 25 µM (Mcl-1) | inhibition at 25 µM (Bcl-XL) | inhibition at 50 µM (Bcl-XL) | inhibition at 50 µM (Mcl-1)
32 | [N-]=[N+]=NS(=O)(=O)c1ccc(CN(CCSc2ccccc2)Cc2ccc(S(=O)(=O)NC(=O)c3cccc4ccccc34)cc2)cc1 [SZ9TA7] | 8.2 µM | – | – | – | – | – | – | – | 44.5% | –
33 | COc1cc(OC)cc(C(=O)NS(=O)(=O)c2ccc(CN(CCSc3ccccc3)Cc3ccc(S(=O)(=O)N=[N+]=[N-])cc3)cc2)c1 [SZ9TA5] | 8.1 µM | – | – | 36 µM | – | – | 50% | 8.6% | 60.3% | > 99%
